Data as given in patent EP4230621A1, “SUBSTITUTED N-BENZOIC ACID URACILS, THEIR SALTS AND USE OF SAID COMPOUNDS AS HERBICIDAL AGENTS” (Bayer AG, priority 2022, dated 2023).

What was measured:
Type in all cases: in vivo
Setaria viridis = assay: Post-emergence herbicidal action against SETVI (greenhouse pot test)
Description: (§1) Die folgenden Abkürzungen werden für die in den folgenden Tabellen aufgeführten Kultur- und Schadpflanzen verwendet: ABUTH: Abutilon theophrasti ALOMY: Alopecurus myosuroides AMARE: Amaranthus retroflexus BRSNS: Brassica napus DIGSA: Digitaria sanguinalis ECHCG: Echinochloa crus-galli GLXMA: Glycine max KCHSC: Kochia scoparia LOLRI: Lolium rigidum MATIN: Matricaria inodora ORYZA: Oryza sativa PHPBU: Pharbitis purpurea POLCO: Polygonum convolvulus SETVI: Setaria viridis VERPE: Veronica persica VIOTR: Viola tricolor TRZAS: Triticum aestivum ZEAMX: Zea mays
(§2) Samen von mono- bzw. dikotylen Unkrautpflanzen wurden in Kunststoff- oder Holzfasertöpfen in sandigem Lehmboden ausgelegt, mit Erde abgedeckt und im Gewächshaus unter kontrollierten Wachstumsbedingungen angezogen. 2 bis 3 Wochen nach der Aussaat wurden die Versuchspflanzen im Einblattstadium behandelt. Die in Form von benetzbaren Pulvern (WP) oder als Emulsionskonzentrate (EC) formulierten erfindungsgemäßen Verbindungen wurden dann als wässrige Suspension bzw. Emulsion unter Zusatz von 0,5% Additiv mit einer Wasseraufwandmenge von umgerechnet 600 1/ha auf die grünen Pflanzenteile gesprüht. Nach ca. 3 Wochen Standzeit der Versuchspflanzen im Gewächshaus, unter optimalen Wachstumsbedingungen, wurde die Wirkung der Präparate visuell im Vergleich zu unbehandelten Kontrollen bonitiert. Beispielsweise bedeutet 100% Wirkung = Pflanzen sind abgestorben, 0% Wirkung = wie Kontrollpflanzen.
(§3) In den nachstehenden Tabellen A1 bis A11 sind die Wirkungen ausgewählter Verbindungen der allgemeinen Formel (I) gemäß der Tabelle 1 auf verschiedene Schadpflanzen und einer Aufwandmenge entsprechend 80 g/ha und niedriger, die gemäß zuvor genannter Versuchsvorschrift erhalten wurden, dargestellt. Tabelle A1a: Nachauflaufwirkung bei 5 g/ha gegen ABUTH in %

Alopecurus myosuroides = assay: Post-emergence herbicidal action against ALOMY (greenhouse pot test); conditions: visual rating after ca. 3 weeks vs untreated controls (100% = plants dead, 0% = like controls)
Description: as §1, §2, §3

Digitaria sanguinalis = assay: Post-emergence herbicidal action against DIGSA (greenhouse pot test); conditions: visual rating after ca. 3 weeks vs untreated controls (100% = plants dead, 0% = like controls)
Description: as §1, §2, §3

Abutilon theophrasti = assay: Post-emergence herbicidal action against ABUTH (greenhouse pot test); conditions: visual rating after ca. 3 weeks vs untreated controls (100% = plants dead, 0% = like controls)
Description: as §1, §2, §3

Pharbitis purpurea = assay: Post-emergence herbicidal action against PHBPU (greenhouse pot test)
Description: as §1, §2, §3

Triticum aestivum = assay: Post-emergence action on crop plants, TRZAS (greenhouse pot test); conditions: crop plant
Description: as §1
as §2, with “Kulturpflanzen” for “Unkrautpflanzen”
as §3, with “B1” for “A1”, “B3” for “A11”, “Kulturpflanzen” for “Schadpflanzen”, “20” for “80”, “B1a:” for “A1a:”, “ZEAMX” for “ABUTH”

Lolium rigidum = assay: Post-emergence herbicidal action against LOLRI (greenhouse pot test); conditions: visual rating after ca. 3 weeks vs untreated controls (100% = plants dead, 0% = like controls)
Description: as §1, §2, §3

Veronica persica = assay: Post-emergence herbicidal action against VERPE (greenhouse pot test)
Description: as §1, §2, §3

Amaranthus retroflexus = assay: Post-emergence herbicidal action against AMARE (greenhouse pot test); conditions: visual rating after ca. 3 weeks vs untreated controls (100% = plants dead, 0% = like controls)
Description: as §1, §2, §3

Viola tricolor = assay: Post-emergence herbicidal action against VIOTR (greenhouse pot test)
Description: as §1, §2, §3

Zea mays = assay: Post-emergence action on crop plants, ZEAMX (greenhouse pot test); conditions: 5 g/ha, crop plant
Description: as §1
as §2, with “Kulturpflanzen” for “Unkrautpflanzen”
as §3, with “B1” for “A1”, “B3” for “A11”, “Kulturpflanzen” for “Schadpflanzen”, “20” for “80”, “B1a:” for “A1a:”, “ZEAMX” for “ABUTH”

Oryza sativa = assay: Post-emergence action on crop plants, ORYZA (greenhouse pot test); conditions: 5 g/ha
Description: as §1
as §2, with “Kulturpflanzen” for “Unkrautpflanzen”
as §3, with “B1” for “A1”, “B3” for “A11”, “Kulturpflanzen” for “Schadpflanzen”, “20” for “80”, “B1a:” for “A1a:”, “ZEAMX” for “ABUTH”

Matricaria inodora = assay: Post-emergence herbicidal action against MATIN (greenhouse pot test); conditions: for Nachauflaufwirkung gegen MATIN: visual rating after ca. 3 weeks vs untreated controls (100% = plants dead, 0% = like controls); for Nachauflaufwirkung gegen MATIN in %: 80 g/ha
Description: as §1, §2, §3

Polygonum convolvulus = assay: Post-emergence herbicidal action against POLCO (greenhouse pot test)
Description: as §1, §2, §3

SMILES	Nachauflaufwirkung gegen SETVI in % (Setaria viridis; 5 g/ha) [%]	Nachauflaufwirkung gegen SETVI in % (Setaria viridis; 20 g/ha) [%]	Nachauflaufwirkung gegen SETVI in % (Setaria viridis; 80 g/ha) [%]	Nachauflaufwirkung gegen ALOMY (Alopecurus myosuroides; 20 g/ha) [%]	Nachauflaufwirkung gegen ALOMY (Alopecurus myosuroides; 80 g/ha) [%]	Nachauflaufwirkung gegen DIGSA (Digitaria sanguinalis; 5 g/ha) [%]	Nachauflaufwirkung gegen DIGSA (Digitaria sanguinalis; 20 g/ha) [%]	Nachauflaufwirkung gegen DIGSA (Digitaria sanguinalis; 80 g/ha) [%]	Nachauflaufwirkung gegen ABUTH (Abutilon theophrasti; 5 g/ha) [%]	Nachauflaufwirkung gegen ABUTH (Abutilon theophrasti; 20 g/ha) [%]	Nachauflaufwirkung gegen ABUTH (Abutilon theophrasti; 80 g/ha) [%]	Nachauflaufwirkung gegen PHBPU in % (Pharbitis purpurea; 5 g/ha) [%]	Nachauflaufwirkung gegen PHBPU in % (Pharbitis purpurea; 20 g/ha) [%]	Nachauflaufwirkung gegen PHBPU in % (Pharbitis purpurea; 80 g/ha) [%]	Nachauflaufwirkung gegen TRZAS in % (Triticum aestivum; 5 g/ha) [%]	Nachauflaufwirkung gegen LOLRI (Lolium rigidum; 80 g/ha) [%]	Nachauflaufwirkung gegen VERPE in % (Veronica persica; 5 g/ha) [%]	Nachauflaufwirkung gegen VERPE in % (Veronica persica; 20 g/ha) [%]	Nachauflaufwirkung gegen VERPE in % (Veronica persica; 80 g/ha) [%]	Nachauflaufwirkung gegen AMARE (Amaranthus retroflexus; 5 g/ha) [%]	also measured
COCCOC(=O)C(C)(C)OC(=O)c1cc(-n2c(=O)cc(C(F)(F)F)n(C)c2=O)c(F)cc1Cl [I.1-1]	100	100	100	100	100	100	100	100	100	100	100	80	100	100	10	100	100	100	100	100	Nachauflaufwirkung gegen LOLRI (Lolium rigidum; 20 g/ha): 100%; Nachauflaufwirkung gegen AMARE (Amaranthus retroflexus; 20 g/ha): 100%; Nachauflaufwirkung gegen AMARE (Amaranthus retroflexus; 80 g/ha): 100%; Nachauflaufwirkung gegen VIOTR in % (Viola tricolor; 5 g/ha): 100%; Nachauflaufwirkung gegen VIOTR in % (Viola tricolor; 20 g/ha): 100%; Nachauflaufwirkung gegen VIOTR in % (Viola tricolor; 80 g/ha): 100%; Nachauflaufwirkung gegen ZEAMX in % (Zea mays): 10%; Nachauflaufwirkung gegen ORYZA in % (Oryza sativa): 20%; Nachauflaufwirkung gegen MATIN (Matricaria inodora; 5 g/ha): 100%; Nachauflaufwirkung gegen MATIN (Matricaria inodora; 20 g/ha): 100%; Nachauflaufwirkung gegen MATIN in % (Matricaria inodora): 100%; Nachauflaufwirkung gegen POLCO in % (Polygonum convolvulus; 5 g/ha): 100%; Nachauflaufwirkung gegen POLCO in % (Polygonum convolvulus; 20 g/ha): 100%; Nachauflaufwirkung gegen POLCO in % (Polygonum convolvulus; 80 g/ha): 100%
CCOCCOC(=O)C(C)(C)OC(=O)c1cc(-n2c(=O)cc(C(F)(F)F)n(C)c2=O)c(F)cc1Cl [I.1-2]	100	100	100	90	100	100	100	100	100	100	100	100	100	100	10	100	100	100	100	100	Nachauflaufwirkung gegen TRZAS in % (Triticum aestivum; 20 g/ha): 20%; Nachauflaufwirkung gegen AMARE (Amaranthus retroflexus; 20 g/ha): 100%; Nachauflaufwirkung gegen AMARE (Amaranthus retroflexus; 80 g/ha): 100%; Nachauflaufwirkung gegen VIOTR in % (Viola tricolor; 5 g/ha): 100%; Nachauflaufwirkung gegen VIOTR in % (Viola tricolor; 20 g/ha): 100%; Nachauflaufwirkung gegen VIOTR in % (Viola tricolor; 80 g/ha): 100%; Nachauflaufwirkung gegen ZEAMX in % (Zea mays): 20%; Nachauflaufwirkung gegen ORYZA in % (Oryza sativa): 0%; Nachauflaufwirkung gegen MATIN (Matricaria inodora; 5 g/ha): 100%; Nachauflaufwirkung gegen MATIN (Matricaria inodora; 20 g/ha): 100%; Nachauflaufwirkung gegen MATIN in % (Matricaria inodora): 100%; Nachauflaufwirkung gegen POLCO in % (Polygonum convolvulus; 5 g/ha): 100%; Nachauflaufwirkung gegen POLCO in % (Polygonum convolvulus; 20 g/ha): 100%; Nachauflaufwirkung gegen POLCO in % (Polygonum convolvulus; 80 g/ha): 100%
Cn1c(C(F)(F)F)cc(=O)n(-c2cc(C(=O)OC(C)(C)C(=O)OCc3ccccn3)c(Cl)cc2F)c1=O [I.1-286]	100	100	100	100	100	100	100	100	100	100	100	100	100	100	10	100	100	100	100	100	Nachauflaufwirkung gegen TRZAS in % (Triticum aestivum; 20 g/ha): 20%; Nachauflaufwirkung gegen LOLRI (Lolium rigidum; 20 g/ha): 90%; Nachauflaufwirkung gegen AMARE (Amaranthus retroflexus; 20 g/ha): 100%; Nachauflaufwirkung gegen AMARE (Amaranthus retroflexus; 80 g/ha): 100%; Nachauflaufwirkung gegen VIOTR in % (Viola tricolor; 5 g/ha): 100%; Nachauflaufwirkung gegen VIOTR in % (Viola tricolor; 20 g/ha): 100%; Nachauflaufwirkung gegen VIOTR in % (Viola tricolor; 80 g/ha): 100%; Nachauflaufwirkung gegen ZEAMX in % (Zea mays): 20%; Nachauflaufwirkung gegen ORYZA in % (Oryza sativa): 0%; Nachauflaufwirkung gegen MATIN (Matricaria inodora; 5 g/ha): 100%; Nachauflaufwirkung gegen MATIN (Matricaria inodora; 20 g/ha): 100%; Nachauflaufwirkung gegen MATIN in % (Matricaria inodora): 100%; Nachauflaufwirkung gegen POLCO in % (Polygonum convolvulus; 5 g/ha): 100%; Nachauflaufwirkung gegen POLCO in % (Polygonum convolvulus; 20 g/ha): 100%; Nachauflaufwirkung gegen POLCO in % (Polygonum convolvulus; 80 g/ha): 100%
